Where two headings read alike, the source gives them in different places.
Experiments:
[1] = molecular target: human KEAP1 (N-term, residues 321-609) (Homo sapiens, UniProt Q14145); test: biochemical;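 further: fluorescence polarization competition assay of Kelch domain binding to NRF2, 12-point 1:3 dilution series from 10 µM, read after 1 h at room temperature, floor 10 nM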
[2] = test system: NQO1 mRNA in BEAS-2B cells; test: Beas2B NQO1 mRNA cell based assay; parameters: species or system human; conditions: Homo sapiens, BEAS-2B
How it was run: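 BEAS-2B human bronchial epithelial cells exposed to compound for 24 h at 37 °C, 5% CO2. NQO1 mRNA measured by one-step TaqMan RT-qPCR on unpurified lysates, normalized to β-actin; relative expression by ΔΔCT method.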

[3] = 24 h, 24 h compound treatment, increase in NQO1 mRNA vs vehicle (0.1% DMSO), read-out: EC50

Sequence of human KEAP1 (N-term, residues 321-609) (Q14145 321-609): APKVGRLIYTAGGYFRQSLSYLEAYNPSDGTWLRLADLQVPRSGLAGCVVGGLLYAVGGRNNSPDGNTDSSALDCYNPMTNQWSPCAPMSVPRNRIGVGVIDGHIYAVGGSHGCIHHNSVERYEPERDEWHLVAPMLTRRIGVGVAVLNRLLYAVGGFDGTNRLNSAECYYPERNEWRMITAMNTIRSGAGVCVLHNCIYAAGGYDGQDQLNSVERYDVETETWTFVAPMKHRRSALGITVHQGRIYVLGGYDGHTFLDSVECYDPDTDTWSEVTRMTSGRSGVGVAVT

| SMILES | IC50 [1] [nM] | EC50 [2, 3] [nM] | EC50 ([2]; NQO1 mRNA, on one test occasion, read-out: EC50 on one test occasion (footnote to Table 5)) [nM] |
| --- | --- | --- | --- |
| Cn1cc(COc2ccc(Br)c3c2[C@@H](CN2Cc4ccccc4C2=O)N(C(=O)[C@@H]2CCCC[C@@H]2C(=O)O)CC3)nn1 [Example 34, (1S,2R)-2-((S)-5-bromo-8-((1-methyl-1H-1,2,3-triazol-4-yl)methoxy)-1-((1-oxoisoindolin-2-yl)methyl)-1,2,3,4-tetrahydroisoquinoline-2-carbonyl)cyclohexane-1-carboxylic acid] | 5 | 3.3 |  |
| O=C(O)[C@H]1CCCC[C@H]1C(=O)N1CCc2c(Br)ccc(OCc3nnc4ccccn34)c2[C@H]1CN1Cc2ccccc2C1=O [Example 16, (1S,2R)-2-((S)-8-([1,2,4]triazolo[4,3-a]pyridin-3-ylmethoxy)-5-bromo-1-((1-oxoisoindolin-2-yl)methyl)-1,2,3,4-tetrahydroisoquinoline-2-carbonyl)cyclohexane-1-carboxylic acid] | 8.1 | 2 |  |
| O=C(O)[C@H]1CCCC[C@H]1C(=O)N1CCc2c(Cl)ccc(OCc3ccsn3)c2[C@H]1CN1CCCC1=O [Example 71, (1S,2R)-2-((S)-5-Chloro-8-isothiazol-3-ylmethoxy)-1-((2-oxopyrrolidin-1-ylmethyl)-1,2,3,4-tetrahydroisoquinoline-2-carbonyl) cyclohexane-1-carboxylic acid] | 6.5 | 78 |  |
| O=C(O)[C@H]1CCCC[C@H]1C(=O)N1CCc2c(Br)ccc(O[C@H]3CCN(C(=O)c4cncs4)C3)c2[C@H]1CN1C(=O)c2ccccc2C1=O [Example 5, (1S,2R)-2-((S)-5-bromo-1-((1,3-dioxoisoindolin-2-yl)methyl)-8-(((S)-1-(thiazole-5-carbonyl)pyrrolidin-3-yl)oxy)-1,2,3,4-tetrahydroisoquinoline-2-carbonyl)cyclohexane-1-carboxylic acid] | 6.1 | 2.5 |  |
| Cn1cnnc1COc1ccc(Br)c2c1[C@@H](CN1Cc3ccccc3C1=O)N(C(=O)[C@@H]1CCCC[C@@H]1C(=O)O)CC2 [Example 23, (1S,2R)-2-((S)-5-bromo-8-((4-methyl-4H-1,2,4-triazol-3-yl)methoxy)-1-((1-oxoisoindolin-2-yl)methyl)-1,2,3,4-tetrahydroisoquinoline-2-carbonyl)cyclohexane-1-carboxylic acid] | 10 | 33 |  |
| O=C(O)[C@H]1CCCC[C@H]1C(=O)N1CCc2c(Br)ccc(OCc3nnc4ccccn34)c2[C@H]1CN1CCCC1=O [Example 64, (1S,2R)-2-((S)-8-[(1,2,4]triazolo[4,3-a]pyridin-3-ylmethoxy)-5-bromo-1-((2-oxopyrrolidin-1-yl)methyl)-1,2,3,4-tetrahydroisoquinoline-2-carbonyl)cyclohexane-1-carboxylic acid] | 6.3 | 23 |  |
| Cn1cnc2cc(COc3cccc4c3[C@@H](CN3C(=O)c5ccccc5C3=O)N(C(=O)[C@@H]3CCCC[C@@H]3C(=O)O)CC4)ccc21 [Example 10, (1S,2R)-2-((S)-1-((1,3-dioxoisoindolin-2-yl)methyl)-8-((1-methyl-1H-benzo[d]imidazol-5-yl)methoxy)-1,2,3,4-tetrahydroisoquinoline-2-carbonyl)cyclohexane-1-carboxylic acid] | 15 | 140 | > 500 |
| Cn1cnc2cc(COc3ccc(Cl)c4c3[C@@H](CN3CCCC3=O)N(C(=O)[C@@H]3CCCC[C@@H]3C(=O)O)CC4)cnc21 [Example 89, (1S,2R)-2-((S)-5-Chloro-8-((3-methyl-3H-imidazo[4,5-b]pyridin-6-yl)methoxy)-1-((2-oxopyrrolidin-1-yl)methyl)-1,2,3,4-tetrahydroisoquinoline-2-carbonyl) cyclohexane-1-carboxylic acid] | 8.2 | 5.1 |  |
| CC(C)n1cc(COc2ccc(C#N)c3c2[C@@H](CN2Cc4ccccc4C2=O)N(C(=O)[C@@H]2CCCC[C@@H]2C(=O)O)CC3)nn1 [Example 60, (1S,2R)-2-((S)-5-cyano-8-((1-isopropyl-1H-1,2,3-triazol-4-yl)methoxy)-1-((1-oxoisoindolin-2-yl)methyl)-1,2,3,4-tetrahydroisoquinoline-2-carbonyl)cyclohexane-1-carboxylic acid] | 96 | 2.8 |  |
| CCn1nnc(COc2ccc(Cl)c3c2[C@@H](CN2CCCC2=O)N(C(=O)[C@@H]2CCCC[C@]2(C)C(=O)O)CC3)c1C(F)F [Example 120, (1S,2R)-2-((S)-5-chloro-8-((5-(difluoromethyl)-1-ethyl-1H-1,2,3-triazol-4-yl)methoxy)-1-((2-oxopyrrolidin-1-yl)methyl)-1,2,3,4-tetrahydroisoquinoline-2-carbonyl)-1-methylcyclohexane-1-carboxylic acid] | 6.2 | 1.2 |  |
| Cc1ccc(OCc2cn(C(C)C)nn2)c2c1CCN(C(=O)[C@@H]1CCCC[C@@H]1C(=O)O)[C@@H]2CN1Cc2ccccc2C1=O [Example 59, (1S,2R)-2-((S)-8-((1-isopropyl-1H-1,2,3-triazol-4-yl)methoxy)-5-methyl-1-((1-oxoisoindolin-2-yl)methyl)-1,2,3,4-tetrahydroisoquinoline-2-carbonyl)cyclohexane-1-carboxylic acid] | 11 | 21 |  |
| Cn1nnc(COc2ccc(Cl)c3c2[C@@H](CN2CCCC2=O)N(C(=O)[C@@H]2CCC[C@]2(C)C(=O)O)CC3)c1C(F)F [Example 102, (1S,2R)-2-((S)-5-chloro-8-((5-(difluoromethyl)-1-methyl-1H-1,2,3-triazol-4-yl)methoxy)-1-((2-oxopyrrolidin-1-yl)methyl)-1,2,3,4-tetrahydroisoquinoline-2-carbonyl)-1-methylcyclopentane-1-carboxylic acid] | 4.8 | 1 |  |
| O=C(O)[C@H]1CCCC[C@H]1C(=O)N1CCc2c(Cl)ccc(OCc3nccn3CC(F)(F)F)c2[C@H]1CN1Cc2ccccc2C1=O [Example 51, (1S,2R)-2-((S)-5-chloro-1-((1-oxoisoindolin-2-yl)methyl)-8-((1-(2,2,2-trifluoroethyl)-1H-imidazol-2-yl)methoxy)-1,2,3,4-tetrahydroisoquinoline-2-carbonyl)cyclohexane-1-carboxylic acid] | 10 | 110 |  |
| O=C(O)[C@H]1CCCC[C@H]1C(=O)N1CCc2c(Br)ccc(OCc3nnc4n3CCCC4)c2[C@H]1CN1Cc2ccccc2C1=O [Example 44, (1S,2R)-2-((S)-5-bromo-1-((1-oxoisoindolin-2-yl)methyl)-8-((5,6,7,8-tetrahydro-[1,2,4]triazolo[4,3-a]pyridin-3-yl)methoxy)-1,2,3,4-tetrahydroisoquinoline-2-carbonyl)cyclohexane-1-carboxylic acid] | 4.2 | 10 |  |

More lines, main results first:

| IC50 [1] [nM] | SMILES | EC50 [2, 3] [nM] | EC50 ([2]; NQO1 mRNA, on one test occasion, read-out: EC50 on one test occasion (footnote to Table 5)) [nM] |
| --- | --- | --- | --- |
| 9.3 | Cc1onc(COc2ccc(Cl)c3c2[C@@H](CN2CC4(CC4)CC2=O)N(C(=O)[C@@H]2CCCC[C@]2(C)C(=O)O)CC3)c1C(F)(F)F [Example 154, (1S,2R)-2-((S)-5-chloro-8-((5-methyl-4-(trifluoromethyl)isoxazol-3-yl)methoxy)-1-((6-oxo-5-azaspiro[2.4]heptan-5-yl)methyl)-1,2,3,4-tetrahydroisoquinoline-2-carbonyl)-1-methylcyclohexane-1-carboxylic acid] | 18 |  |
| 6.5 | Cn1nnc(COc2ccc(Cl)c3c2[C@@H](CN2CC4(CC4)CC2=O)N(C(=O)[C@@H]2C[C@H](O)CC[C@]2(C)C(=O)O)CC3)c1C(F)F [Example 225, (1S,2R,4R)-2-((S)-5-chloro-8-((5-(difluoromethyl)-1-methyl-1H-1,2,3-triazol-4-yl)methoxy)-1-((6-oxo-5-azaspiro[2.4]heptan-5-yl)methyl)-1,2,3,4-tetrahydroisoquinoline-2-carbonyl)-4-hydroxy-1-methylcyclohexane-1-carboxylic acid] | 110 |  |
| 6.2 | Cn1cnc(COc2ccc(Cl)c3c2[C@@H](CN2CC4(CC4)CC2=O)N(C(=O)[C@@H]2CCCC[C@]2(C)C(=O)O)CC3)c1 [Example 185, (1S,2R)-2-((S)-5-chloro-8-((1-methyl-1H-imidazol-4-yl)methoxy)-1-((6-oxo-5-azaspiro[2.4]heptan-5-yl)methyl)-1,2,3,4-tetrahydroisoquinoline-2-carbonyl)-1-methylcyclohexane-1-carboxylic acid] | 56 |  |
| 7.9 | C[C@]1(C(=O)O)CCCC[C@H]1C(=O)N1CCc2c(Cl)ccc(OCc3noc4c3CCCC4)c2[C@H]1CN1CCCC1=O [Example 138, (1S,2R)-2-((S)-5-chloro-1-((2-oxopyrrolidin-1-yl)methyl)-8-((4,5,6,7-tetrahydrobenzo[d]isoxazol-3-yl)methoxy)-1,2,3,4-tetrahydroisoquinoline-2-carbonyl)-1-methylcyclohexane-1-carboxylic acid] | 0.8 |  |
| 4.5 | Cn1nnc(COc2ccc(Cl)c3c2[C@@H](CN2CC4(CC4)CC2=O)N(C(=O)[C@@H]2OCCC[C@@H]2C(=O)O)CC3)c1C(F)F [Example 140, (2R,3S)-2-((S)-5-chloro-8-((5-(difluoromethyl)-1-methyl-1H-1,2,3-triazol-4-yl)methoxy)-1-((6-oxo-5-azaspiro[2.4]heptan-5-yl)methyl)-1,2,3,4-tetrahydroisoquinoline-2-carbonyl)tetrahydro-2H-pyran-3-carboxylic acid] | 150 |  |
| 5.1 | Cc1c(COc2ccc(Cl)c3c2[C@@H](CN2CC4(CC4)CC2=O)N(C(=O)[C@@H]2CCCC[C@]2(C)C(=O)O)CC3)nnn1C [Example 156, (1S,2R)-2-((S)-5-chloro-8-((1,5-dimethyl-1H-1,2,3-triazol-4-yl)methoxy)-1-((6-oxo-5-azaspiro[2.4]heptan-5-yl)methyl)-1,2,3,4-tetrahydroisoquinoline-2-carbonyl)-1-methylcyclohexane-1-carboxylic acid] | 0.29 |  |

Source: patent US12098148B2, “Therapeutic compounds” (C4X Discovery Limited, priority 2018, dated 2024)
